According to patent publication US20200181095A1, “SELECTIVE MATRIX METALLOPROTEINASE-13 INHIBITORS” (FLORIDA ATLANTIC UNIVERSITY BOARD OF TRUSTEES, priority 2017, published 2020):
Values joined by “and” are separate entries in the source; they are usually repeats but may differ in a detail not shown here. Equal values may be shown once. Read-outs that look alike come from different tables or passages of the source.

Experiments:
Type in all cases: biochemical
MMP-13 [1] = biological target: T1, MMP-13 (Homo sapiens, UniProt P45452); assay: MMP-13 IC50 enzyme assay with fTHP-15 substrate; conditions: for IC50: fTHP substrate
T1 construct: purchased R&D Systems 511-MM
Method: Inhibitor kinetics: Inhibition experiments were conducted as described previously.^3 Briefly, fTHP-15, MMP-13, and inhibitor working solutions were prepared in EAB.
The enzyme was allowed to incubate with the test compounds for 30 min at 25° C. The assays were initiated by addition of 5 μL of fTHP-15 or Knight substrate and immediately placed in the microplate reader to record fluorescence.
To determine IC50 values of each compound, the relative fluorescence units (RFU) from wells containing MMP-13, fTHP-15, and inhibitors were plotted vs. no-enzyme and untreated controls.

MMP-13 [2] = biological target: T1, MMP-13; assay: MMP-13 inhibition constant (Ki) determination, fTHP-15; conditions: fTHP-15 substrate, 4 nM MMP-13, mixed inhibition model
Method: Rates of hydrolysis were obtained from plots of fluorescence versus time using data points from only the linear portion of the hydrolysis curve.
KM values were determined by nonlinear regression analysis using the one-site hyperbolic binding model^4 and additionally evaluated by linear analysis. All Ki values were determined by nonlinear regression (hyperbolic equation) analysis using the mixed inhibition model, which allows for simultaneous determination of the mechanism of inhibition, The mechanism of inhibition was determined using the “α” parameter derived from a mixed-model inhibition by GraphPad Prism. The mechanism of inhibition was additionally confirmed by Lineweaver-Burke plots.

Cathepsin-K = Cathepsin-K (Homo sapiens, UniProt P43235); assay: Protease selectivity profiling; parameters: inhibition: dose or concentration left out as unconfirmed
ACE2 = ACE2 (Homo sapiens, UniProt Q9BYF1); assay: Protease selectivity profiling; parameters: inhibition: dose or concentration left out as unconfirmed
ACE2, sequence (Q9BYF1 18-805, species assumed): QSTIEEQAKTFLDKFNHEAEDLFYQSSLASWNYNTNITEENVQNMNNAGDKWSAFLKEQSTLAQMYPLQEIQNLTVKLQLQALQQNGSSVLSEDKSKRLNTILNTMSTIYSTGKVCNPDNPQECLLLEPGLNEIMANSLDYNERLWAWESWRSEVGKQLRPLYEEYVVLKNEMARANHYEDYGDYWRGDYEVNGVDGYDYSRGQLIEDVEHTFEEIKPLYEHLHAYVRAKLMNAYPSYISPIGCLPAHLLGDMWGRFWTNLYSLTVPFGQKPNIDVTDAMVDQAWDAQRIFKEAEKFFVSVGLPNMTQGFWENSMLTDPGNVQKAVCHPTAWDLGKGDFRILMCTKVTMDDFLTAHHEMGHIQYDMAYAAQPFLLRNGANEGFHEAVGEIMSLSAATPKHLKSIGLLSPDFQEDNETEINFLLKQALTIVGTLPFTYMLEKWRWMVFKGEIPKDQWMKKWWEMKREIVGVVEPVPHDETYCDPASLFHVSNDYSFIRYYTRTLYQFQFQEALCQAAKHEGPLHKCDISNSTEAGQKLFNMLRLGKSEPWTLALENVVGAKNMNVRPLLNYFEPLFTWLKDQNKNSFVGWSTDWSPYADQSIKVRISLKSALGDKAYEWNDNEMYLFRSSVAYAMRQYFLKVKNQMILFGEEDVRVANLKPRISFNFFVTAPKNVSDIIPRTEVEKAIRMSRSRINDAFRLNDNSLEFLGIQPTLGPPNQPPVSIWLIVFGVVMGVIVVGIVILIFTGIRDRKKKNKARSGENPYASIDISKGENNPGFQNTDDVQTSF

Neprilysin = Neprilysin (Homo sapiens, UniProt P08473); assay: Protease selectivity profiling; parameters: inhibition: dose or concentration left out as unconfirmed
Neprilysin, sequence (P08473 whole entry, species assumed): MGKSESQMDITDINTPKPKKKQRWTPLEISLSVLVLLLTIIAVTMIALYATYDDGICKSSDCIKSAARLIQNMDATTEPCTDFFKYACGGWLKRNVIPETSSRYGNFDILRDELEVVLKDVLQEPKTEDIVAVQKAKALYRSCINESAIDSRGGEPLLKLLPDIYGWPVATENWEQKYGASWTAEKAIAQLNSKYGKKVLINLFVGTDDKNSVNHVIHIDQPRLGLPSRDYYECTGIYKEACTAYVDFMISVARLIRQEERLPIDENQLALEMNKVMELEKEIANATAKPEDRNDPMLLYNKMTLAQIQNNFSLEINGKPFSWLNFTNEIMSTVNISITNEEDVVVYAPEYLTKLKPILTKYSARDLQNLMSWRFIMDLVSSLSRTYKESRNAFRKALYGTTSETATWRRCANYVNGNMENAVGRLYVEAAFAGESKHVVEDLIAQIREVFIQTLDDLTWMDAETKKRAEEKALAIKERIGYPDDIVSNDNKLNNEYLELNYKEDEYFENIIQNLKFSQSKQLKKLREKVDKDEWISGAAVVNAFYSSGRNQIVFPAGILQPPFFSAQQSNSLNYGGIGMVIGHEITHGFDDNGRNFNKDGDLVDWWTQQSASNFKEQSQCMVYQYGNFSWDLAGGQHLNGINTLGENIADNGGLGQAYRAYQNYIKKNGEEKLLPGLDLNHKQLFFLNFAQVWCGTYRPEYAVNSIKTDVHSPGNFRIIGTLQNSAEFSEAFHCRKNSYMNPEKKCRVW

Furin = Furin (Homo sapiens, UniProt P09958); assay: Protease selectivity profiling; parameters: inhibition: dose or concentration left out as unconfirmed
MMP-3 = MMP-3 (Homo sapiens, UniProt P08254); assay: Protease selectivity profiling; conditions: single stranded peptide substrate; inhibitor (text 1 μM); duplicates
Caspase-3 = Caspase-3 (Homo sapiens, UniProt P42574); assay: Protease selectivity profiling; parameters: inhibition: dose or concentration left out as unconfirmed
Caspase-2 = Caspase-2 (Homo sapiens, UniProt P42575); assay: Protease selectivity profiling; parameters: inhibition: dose or concentration left out as unconfirmed
Caspase-1 = Caspase-1 (Homo sapiens, UniProt P29466); assay: Protease selectivity profiling; parameters: inhibition: dose or concentration left out as unconfirmed
Caspase-5 = Caspase-5 (Homo sapiens, UniProt P51878); assay: Protease selectivity profiling; parameters: inhibition: dose or concentration left out as unconfirmed
Caspase-5, sequence (P51878 138-327 limits assumed, species assumed): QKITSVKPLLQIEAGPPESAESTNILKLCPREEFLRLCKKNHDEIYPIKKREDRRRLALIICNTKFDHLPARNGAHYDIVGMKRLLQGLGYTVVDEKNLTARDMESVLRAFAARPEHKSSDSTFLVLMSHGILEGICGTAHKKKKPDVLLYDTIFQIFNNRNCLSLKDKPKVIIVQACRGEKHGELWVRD
Caspase-5, sequence (P51878 347-434 limits assumed, species assumed): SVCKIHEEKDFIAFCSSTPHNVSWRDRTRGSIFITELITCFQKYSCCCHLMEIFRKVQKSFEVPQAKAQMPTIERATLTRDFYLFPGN

uPA = uPA (Homo sapiens, UniProt P00749); assay: Protease selectivity profiling; parameters: inhibition: dose or concentration left out as unconfirmed
MMP-7 = MMP-7 (Homo sapiens, UniProt P09237); assay: Protease selectivity profiling; parameters: inhibition: dose or concentration left out as unconfirmed
ACE = ACE (Homo sapiens, UniProt P12821); assay: Protease selectivity profiling; parameters: inhibition: dose or concentration left out as unconfirmed
TACE = TACE (Homo sapiens, UniProt P78536); assay: Protease selectivity profiling; parameters: inhibition: dose or concentration left out as unconfirmed
TACE, sequence (P78536 215-824): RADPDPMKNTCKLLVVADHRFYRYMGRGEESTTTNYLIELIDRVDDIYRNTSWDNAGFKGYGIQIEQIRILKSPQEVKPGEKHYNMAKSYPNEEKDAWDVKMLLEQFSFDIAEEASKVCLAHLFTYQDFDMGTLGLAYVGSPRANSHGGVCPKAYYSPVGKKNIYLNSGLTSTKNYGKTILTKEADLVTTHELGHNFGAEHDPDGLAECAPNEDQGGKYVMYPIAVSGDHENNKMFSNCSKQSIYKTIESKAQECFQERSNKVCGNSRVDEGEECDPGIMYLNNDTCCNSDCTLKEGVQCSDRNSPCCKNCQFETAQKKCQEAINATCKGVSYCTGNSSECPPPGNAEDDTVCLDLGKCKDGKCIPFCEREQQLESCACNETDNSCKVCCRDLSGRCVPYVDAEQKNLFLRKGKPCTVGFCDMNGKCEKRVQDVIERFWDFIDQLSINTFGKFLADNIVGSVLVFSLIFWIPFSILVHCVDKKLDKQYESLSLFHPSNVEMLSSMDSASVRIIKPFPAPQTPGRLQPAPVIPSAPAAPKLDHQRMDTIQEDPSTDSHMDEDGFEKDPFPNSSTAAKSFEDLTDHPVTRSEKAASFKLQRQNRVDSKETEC

Factor-XA = biological target: T2, Factor-XA (Homo sapiens, UniProt P00742); assay: Protease selectivity profiling; parameters: inhibition: dose or concentration left out as unconfirmed
T2 construct: Factor-XA

MMP-12 [3] = biological target: T3, MMP-12 (Homo sapiens, UniProt P39900); assay: Additional specificity assay, 10-point dilution IC50
T3 sequence (P39900 106-470, species assumed): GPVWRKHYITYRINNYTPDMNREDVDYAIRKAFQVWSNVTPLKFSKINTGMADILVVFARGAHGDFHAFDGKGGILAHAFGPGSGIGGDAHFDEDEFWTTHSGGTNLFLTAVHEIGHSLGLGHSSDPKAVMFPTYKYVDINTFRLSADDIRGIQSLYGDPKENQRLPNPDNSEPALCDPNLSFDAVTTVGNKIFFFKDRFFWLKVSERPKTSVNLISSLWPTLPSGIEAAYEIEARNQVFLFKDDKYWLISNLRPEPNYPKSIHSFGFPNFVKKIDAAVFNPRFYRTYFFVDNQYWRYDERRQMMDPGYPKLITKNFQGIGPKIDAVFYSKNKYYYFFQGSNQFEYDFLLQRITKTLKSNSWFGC

Caspase-7 = Caspase-7 (Homo sapiens, UniProt P55210); assay: Protease selectivity profiling; parameters: inhibition: dose or concentration left out as unconfirmed
Caspase-7, sequence (P55210 24-198 limits assumed, species assumed): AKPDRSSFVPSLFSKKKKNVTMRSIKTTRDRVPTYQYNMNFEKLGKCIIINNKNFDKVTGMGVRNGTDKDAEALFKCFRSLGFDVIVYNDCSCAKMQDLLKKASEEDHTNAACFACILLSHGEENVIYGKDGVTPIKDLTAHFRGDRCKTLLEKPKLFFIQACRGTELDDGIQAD
Caspase-7, sequence (P55210 207-303 limits assumed, species assumed): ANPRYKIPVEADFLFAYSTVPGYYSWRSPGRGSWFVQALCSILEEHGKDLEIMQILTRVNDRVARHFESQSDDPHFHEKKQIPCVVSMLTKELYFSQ

Cathepsin-L = Cathepsin-L (Homo sapiens, UniProt P07711); assay: Protease selectivity profiling; parameters: inhibition: dose or concentration left out as unconfirmed
Cathepsin-L, sequence (P07711 114-333, species assumed): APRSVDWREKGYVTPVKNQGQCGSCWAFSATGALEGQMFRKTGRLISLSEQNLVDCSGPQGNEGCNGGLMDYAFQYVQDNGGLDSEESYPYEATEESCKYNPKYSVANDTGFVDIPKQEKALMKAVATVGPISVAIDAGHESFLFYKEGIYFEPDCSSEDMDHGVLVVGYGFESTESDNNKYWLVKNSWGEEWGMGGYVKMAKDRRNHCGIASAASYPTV

MMP-12 [4] = biological target: T3, MMP-12; assay: Protease selectivity profiling; conditions: single stranded peptide substrate; inhibitor 1 mM (footnote; text 1 μM); duplicates
Cathepsin-S = Cathepsin-S (Homo sapiens, UniProt P25774); assay: Protease selectivity profiling; parameters: inhibition: dose or concentration left out as unconfirmed
Cathepsin-D = Cathepsin-D (Homo sapiens, UniProt P07339); assay: Protease selectivity profiling; parameters: inhibition: dose or concentration left out as unconfirmed
Cathepsin-D, sequence (P07339 65-412, species assumed): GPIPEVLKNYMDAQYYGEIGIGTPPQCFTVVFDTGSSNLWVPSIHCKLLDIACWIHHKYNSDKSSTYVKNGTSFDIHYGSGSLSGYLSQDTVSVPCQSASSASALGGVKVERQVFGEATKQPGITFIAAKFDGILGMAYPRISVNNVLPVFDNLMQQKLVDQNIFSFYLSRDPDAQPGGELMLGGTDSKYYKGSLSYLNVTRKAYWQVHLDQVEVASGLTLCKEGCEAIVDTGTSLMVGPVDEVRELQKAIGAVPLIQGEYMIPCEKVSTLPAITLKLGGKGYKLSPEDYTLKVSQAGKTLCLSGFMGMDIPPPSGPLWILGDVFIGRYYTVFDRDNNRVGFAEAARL

IDE = IDE (Homo sapiens, UniProt P14735); assay: Protease selectivity profiling; parameters: inhibition: dose or concentration left out as unconfirmed
IDE, sequence (P14735 whole entry, species assumed): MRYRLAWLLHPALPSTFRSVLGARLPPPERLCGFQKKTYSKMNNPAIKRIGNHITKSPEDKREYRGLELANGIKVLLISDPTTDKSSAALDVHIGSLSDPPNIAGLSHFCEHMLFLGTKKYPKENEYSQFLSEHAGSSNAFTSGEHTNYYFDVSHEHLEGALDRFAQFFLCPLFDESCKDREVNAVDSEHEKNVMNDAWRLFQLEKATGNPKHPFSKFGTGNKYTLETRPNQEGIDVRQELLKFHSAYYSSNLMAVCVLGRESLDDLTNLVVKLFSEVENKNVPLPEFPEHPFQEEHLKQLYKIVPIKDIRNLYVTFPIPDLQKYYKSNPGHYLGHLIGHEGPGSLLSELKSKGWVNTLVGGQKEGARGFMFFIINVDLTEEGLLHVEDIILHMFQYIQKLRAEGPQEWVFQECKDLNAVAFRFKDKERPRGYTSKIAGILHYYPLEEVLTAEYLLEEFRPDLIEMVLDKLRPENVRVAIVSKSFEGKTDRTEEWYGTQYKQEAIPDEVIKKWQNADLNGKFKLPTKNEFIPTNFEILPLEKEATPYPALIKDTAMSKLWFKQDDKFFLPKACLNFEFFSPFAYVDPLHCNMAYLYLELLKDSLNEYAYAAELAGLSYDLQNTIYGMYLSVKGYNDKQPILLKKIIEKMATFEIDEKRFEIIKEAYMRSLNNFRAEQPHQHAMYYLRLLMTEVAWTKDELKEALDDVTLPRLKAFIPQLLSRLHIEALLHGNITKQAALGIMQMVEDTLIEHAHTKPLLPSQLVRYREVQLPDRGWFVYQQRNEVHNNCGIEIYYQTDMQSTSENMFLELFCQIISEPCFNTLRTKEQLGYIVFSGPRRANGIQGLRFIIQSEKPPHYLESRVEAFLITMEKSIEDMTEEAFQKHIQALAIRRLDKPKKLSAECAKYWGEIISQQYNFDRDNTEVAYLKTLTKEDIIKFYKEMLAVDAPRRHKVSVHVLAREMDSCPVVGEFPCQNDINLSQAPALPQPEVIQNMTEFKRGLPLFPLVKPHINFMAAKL

BACE-1 = BACE-1 (Homo sapiens, UniProt P56817); assay: Protease selectivity profiling; parameters: inhibition: dose or concentration left out as unconfirmed
Caspase-6 = Caspase-6 (Homo sapiens, UniProt P55212); assay: Protease selectivity profiling; parameters: inhibition: dose or concentration left out as unconfirmed
Caspase-6, sequence (P55212 24-179 limits assumed, species assumed): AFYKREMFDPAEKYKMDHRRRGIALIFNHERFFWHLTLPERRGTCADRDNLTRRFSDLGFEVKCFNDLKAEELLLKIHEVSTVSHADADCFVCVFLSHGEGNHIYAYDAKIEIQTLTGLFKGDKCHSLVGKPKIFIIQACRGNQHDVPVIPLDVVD
Caspase-6, sequence (P55212 194-293 limits assumed, species assumed): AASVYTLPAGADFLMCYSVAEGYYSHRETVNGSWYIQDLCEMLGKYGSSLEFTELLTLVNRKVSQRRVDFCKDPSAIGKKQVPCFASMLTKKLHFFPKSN

Thrombin = Thrombin (Homo sapiens, UniProt P00734); assay: Protease selectivity profiling; conditions: read-out: % Inhibition Thrombin
ADAM10 = ADAM10 (Homo sapiens, UniProt O14672); assay: Protease selectivity profiling; parameters: inhibition: dose or concentration left out as unconfirmed
MMP-8 = biological target: T4, MMP-8 (Homo sapiens, UniProt P22894); assay: Selectivity assay MMP-8 (fTHP-15); conditions: 200 nM
T4 construct: purchased R&D Systems
Method: (§1) All enzymes were purchased from R&D Systems and activated according to manufacturer's instructions. Upon activation, each enzyme was diluted in EAB to […] and stored at −80° C. until further use. […]

MMP-2 = biological target: T5, MMP-2 (Homo sapiens, UniProt P08253); assay: Selectivity assay MMP-2 (fTHP-15); conditions: 200 nM
T5 construct: purchased R&D Systems
Method: as §1

[5] = single stranded peptide substrate, inhibitor 1 µM, duplicates

O=C(O)CNS(=O)(=O)c1ccc(-c2ccc(CSc3nc4c(c(=O)[nH]3)CCC4)cc2)cc1 [Compound 10b] showed an IC50 (MMP-13 [1]) of 1.6 nM and a Ki (MMP-13 [2]) of 1.8 nM.

Work on NCCNS(=O)(=O)c1ccc(-c2ccc(CSc3nc4c(c(=O)[nH]3)CCC4)cc2)cc1 [Compound 10d] yielded an inhibition at 1 µM (Cathepsin-K; [5]) of 0%, an inhibition at 1 µM (ACE2; [5]) of 1% and an inhibition at 1 µM (Neprilysin; [5]) of 3%. For the same molecule, the inhibition at 1 µM (Furin; [5]) was 0%, the inhibition (MMP-3) was 13% and the inhibition at 1 µM (Caspase-3; [5]) was 0%. It also gave an inhibition at 1 µM (Caspase-2; [5]) of 0%, an inhibition at 1 µM (Caspase-1; [5]) of 1% and an inhibition at 1 µM (Caspase-5; [5]) of 0%. For the same molecule, the inhibition at 1 µM (uPA; [5]) was 3%, the inhibition at 1 µM (MMP-7; [5]) was 7% and the inhibition at 1 µM (ACE; [5]) was 7%. The inhibition at 1 µM (TACE; [5]) was 4%, the inhibition at 1 µM (Factor-XA; [5]) was 3% and the “less active as inhibitor of MMP-12 than as MMP-13 inhibitor” value (MMP-12 [3]) was 140 fold. For the same molecule, the IC50 (MMP-12 [3]; fTHP substrates (footnote), 10-point dilution) was 470 nM and 467 nM, the inhibition at 1 µM (Caspase-7; [5]) was 1% and the inhibition at 1 µM (Cathepsin-L; [5]) was 9%. For the same molecule, the inhibition at 1000 µM (MMP-12 [4]) was 40%, the inhibition at 1 µM (Cathepsin-S; [5]) was 12% and the inhibition at 1 µM (Cathepsin-D; [5]) was 3%. The inhibition at 1 µM (IDE; [5]) was 0%, the inhibition at 1 µM (BACE-1; [5]) was 1% and the inhibition at 1 µM (Caspase-6; [5]) was 0%. The inhibition (Thrombin; single stranded peptide substrate, inhibitor (text 1 μM), duplicates) was -3% and the inhibition at 1 µM (ADAM10; [5]) was 0%.

CNC(=O)[C@@H](NC(=O)c1ccc(-c2ccc(CSc3nc4c(c(=O)[nH]3)CCC4)c(F)c2)o1)C(C)C [Compound (S)-17b] gave an inhibition (Cathepsin-K; read-out: % Inhibition Cathepsin-K) of 2%, an inhibition (ACE2; read-out: % Inhibition ACE2) of 0% and an inhibition (Neprilysin; read-out: % Inhibition Neprilysin) of -6%. For the same molecule, the inhibition (Furin; read-out: % Inhibition Furin) was 0%, the inhibition (Caspase-3; read-out: % Inhibition Caspase-3) was 0% and the inhibition (Caspase-2; read-out: % Inhibition Caspase-2) was 0%. The inhibition (Caspase-1; read-out: % Inhibition Caspase-1) was 0%, the inhibition (Caspase-5; read-out: % Inhibition Caspase-5) was 0% and the inhibition (uPA; read-out: % Inhibition uPA) was 1%. The inhibition (MMP-7; read-out: % Inhibition MMP-7) was 4%, the inhibition (ACE; read-out: % Inhibition ACE) was 0% and the inhibition (TACE; read-out: % Inhibition TACE) was -3%. For the same molecule, the inhibition (Factor-XA; read-out: % Inhibition Factor-XA) was 0%, the inhibition (Caspase-7; read-out: % Inhibition Caspase-7) was 8% and the inhibition (Cathepsin-L; read-out: % Inhibition Cathepsin-L) was 7%. It also gave an inhibition (Cathepsin-S; read-out: % Inhibition Cathepsin-S) of 2%, an inhibition (Cathepsin-D; read-out: % Inhibition Cathepsin-D) of 0% and an inhibition (IDE; read-out: % Inhibition IDE) of 0%. The inhibition (BACE-1; read-out: % Inhibition BACE-1) was 0%, the inhibition (Caspase-6; read-out: % Inhibition Caspase-6) was 0% and the inhibition (Thrombin) was -8%. For the same molecule, the inhibition (ADAM10; read-out: % Inhibition ADAM10) was 0%.

Work on CC(C)[C@@H](NS(=O)(=O)c1ccc(-c2ccc(CSc3nc4c(c(=O)[nH]3)CCC4)cc2)cc1)C(=O)O [Compound (R)-10a] yielded an IC50 (MMP-13 [1]) of 2.4 nM and a Ki (MMP-13 [2]) of 1.6 nM.

CC(C)[C@H](NS(=O)(=O)c1ccc(-c2ccc(CSc3nc4c(c(=O)[nH]3)CCC4)cc2)cc1)C(=O)O [(S)-10a] showed an IC50 (MMP-13 [1]) of 2.2 nM and a Ki (MMP-13 [2]) of 2.3 nM.

CNC(=O)[C@H](NC(=O)c1ccc(-c2ccc(CSc3nc4c(c(=O)[nH]3)CCC4)cc2)o1)C(C)C [(R)-17a] was tested, and the “loss of inhibition activity vs. MMP-13 compared to the (S)-enantiomer” value (MMP-13 [1]) was “ca. 12 fold” and the IC50 (MMP-13 [1]) was 72 nM.

In the case of CNC(=O)[C@@H](NC(=O)c1ccc(-c2ccc(CSc3nc4c(c(=O)[nH]3)CCC4)cc2)o1)C(C)C [(S)-17a], the “inhibition of MMP-8 in single dose assay” value (MMP-8) is reported as “moderately active inhibitor”, the “inhibition of MMP-2 in single dose assay” value (MMP-2) is reported as “moderately active inhibitor” and the “improvement of MMP-13 inhibition potency compared to 5” value (MMP-13 [1]) is reported as ~1,000 fold. For the same molecule, the IC50 (MMP-13 [1]) was 5.9 nM.
